# Assay results as given in publication PMC7069944, “Amino acid levels determine metabolism and CYP450 function of hepatocytes and hepatoma cell lines” (Nature Communications, 2020).
# Several values for one entry are separate records, joined by “and”; a condition that tells them apart may be missing. Identical values can stand only once.
# Experiments:
# [1] = tested on: HC6X; experiment: Repeated-exposure DILI training compounds, resazurin conversion, HC6X; conditions: listed as Nefadazone; for resazurin conversion (Supplementary Figure 7D): replicates; for % resazurin conversion: repeat exposure
# Procedure, shortened: (§1)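 PSC-derived cells differentiated in 384-well format, plus HepG2 seeded at 40,000 cells/well, received drugs after 8 h of attachment; untreated wells served as negative controls. Viability was measured by resazurin conversion and related to therapeutic Cmax values.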
# [2] = tested on: HC3X; experiment: Repeated-exposure DILI training compounds, resazurin conversion, HC3X; conditions: for resazurin conversion (Supplementary Figure 7D): HC3X AAGLY D40, replicates
# Procedure, shortened: as §1
# [3] = tested on: HepG2; experiment: Repeated-exposure DILI training compounds, resazurin conversion, HepG2; conditions: listed as Nefadazone; for resazurin conversion (Supplementary Figure 7D): replicates; for % resazurin conversion: repeat exposure
# Procedure, shortened: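 Hepatotoxicity prediction used a miniaturized 384-well differentiation setup, scoring viability through resazurin reduction relative to Cmax.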
# [4] = tested on: HLC; experiment: Repeated-exposure DILI training compounds, resazurin conversion, HLC; conditions: listed as Nefadazone; for resazurin conversion (Supplementary Figure 7D): replicates; for % resazurin conversion: repeat exposure
# Procedure, shortened: as §1
compound,measurement,setting,value
CCc1nn(CCCN2CCN(c3cccc(Cl)c3)CC2)c(=O)n1CCOc1ccccc1 [nefazodone],resazurin conversion (Supplementary Figure 7D),"[1]; HC6X AAGLY D40, 3 uM",86.5 and 67.1 and 73.3 and 119.9 and 72.8 and 62.6
same,resazurin conversion (Supplementary Figure 7D),"[1]; HC6X AAGLY D40, 5 uM",140.1 and 114.8 and 61.7 and 68.6 and 76.5 and 54.7
same,resazurin conversion (Supplementary Figure 7D),"[1]; HC6X AAGLY D40, 10 uM",51.6 and 55.1 and 57.3 and 43.6 and 49.8 and 39.8
same,resazurin conversion (Supplementary Figure 7D),"[1]; HC6X AAGLY D40, 30 uM",34.6 and 33.4 and 31.3 and 32.6 and 37.8 and 31.2
same,resazurin conversion (Supplementary Figure 7D),"[1]; HC6X AAGLY D40, 50 uM",34.2 and 34.7 and 32 and 32.2 and 31.8 and 32.4
same,resazurin conversion (Supplementary Figure 7D),"[1]; HC6X AAGLY D40, 100 uM",37.1 and 36.6 and 34.3 and 34.6 and 33.8 and 34.2
same,resazurin conversion (Supplementary Figure 7D),"[1]; HC6X AAGLY D40, 300 uM",40.6 and 41.1 and 39.2 and 40 and 39.1 and 37.4
same,resazurin conversion (Supplementary Figure 7D),"[1]; HC6X AAGLY D40, 600 uM",39.7 and 40.4 and 38.5 and 38.6 and 37.6 and 37.9
same,resazurin conversion (Supplementary Figure 7D),"[1]; HC6X AAGLY D40 Remove dox, 3 uM",183.4 and 100.9 and 109.5 and 115 and 122 and 109.2
same,resazurin conversion (Supplementary Figure 7D),"[1]; HC6X AAGLY D40 Remove dox, 5 uM",251 and 184.4 and 147 and 113 and 98.3 and 98.4
same,resazurin conversion (Supplementary Figure 7D),"[1]; HC6X AAGLY D40 Remove dox, 10 uM",257.2 and 78.2 and 239.1 and 205.6 and 148.8 and 110.7
same,resazurin conversion (Supplementary Figure 7D),"[1]; HC6X AAGLY D40 Remove dox, 30 uM",87 and 111.9 and 134.6 and 112.2 and 58.4 and 83.6
same,resazurin conversion (Supplementary Figure 7D),"[1]; HC6X AAGLY D40 Remove dox, 50 uM",39.8 and 27.8 and 36.9 and 29.8 and 32 and 29.6
same,resazurin conversion (Supplementary Figure 7D),"[1]; HC6X AAGLY D40 Remove dox, 100 uM",29.7 (2×) and 28.9 and 29.4 and 29.6 and 29.1
same,resazurin conversion (Supplementary Figure 7D),"[1]; HC6X AAGLY D40 Remove dox, 300 uM",34.3 and 32.8 and 33.8 and 34 and 34.1 and 34.5
same,resazurin conversion (Supplementary Figure 7D),"[1]; HC6X AAGLY D40 Remove dox, 600 uM",36.7 (2×) and 35.4 and 36 and 36.5 and 36.3
same,% resazurin conversion,"[1]; HC6X AAGLY D40, 1200 uM",40.4% and 40.1% and 39.1% and 39.2% and 37.6% and 37.4%
same,% resazurin conversion,"[1]; HC6X AAGLY D40 Remove dox, 1200 uM",38.2% and 35.3% and 36.9% and 37.7% and 37% and 35.8%
same,resazurin conversion (Supplementary Figure 7D),"[2]; 3 uM, listed as Nefadazone",123.3 and 103.5 and 107.9 and 73 and 98.7 and 69.4
same,resazurin conversion (Supplementary Figure 7D),"[2]; 5 uM, listed as Nefadazone",105.3 and 82.4 and 66.4 and 71.1 and 119.1 and 75.8
same,resazurin conversion (Supplementary Figure 7D),"[2]; 10 uM, listed as Nefadazone",99 and 147.2 and 96.3 and 91.8 and 116 and 76.9
same,resazurin conversion (Supplementary Figure 7D),"[2]; 30 uM, listed as Nefadazone",10.5 and 10.9 and 12.1 and 10 and 9.5 and 10.1
same,resazurin conversion (Supplementary Figure 7D),"[2]; 50 uM, listed as Nefadazone",10 and 9.9 and 9.3 (2×) and 9.2 and 9.8
same,resazurin conversion (Supplementary Figure 7D),"[2]; 100 uM, listed as Nefadazone",10.6 and 10.4 and 9.7 and 9.8 and 9.4 and 9.6
same,resazurin conversion (Supplementary Figure 7D),"[2]; 300 uM, listed as Nefadazone",11.9 and 11.5 and 10.9 and 11.2 and 10.5 and 10.7
same,resazurin conversion (Supplementary Figure 7D),"[2]; 600 uM, listed as Nefadazone",12 and 12.2 and 11.3 and 11.6 and 11.1 and 10.9
same,IC50/Cmax,[2]; human,12.43
same,% resazurin conversion,"[2]; repeat exposure, HC3X AAGLY D40, 1200 uM, listed as Nefadazone",12.8% and 12.4% and 11.8% and 12.1% and 11.5% and 12.2%
same,resazurin conversion (Supplementary Figure 7D),"[3]; HepG2 AAGLY D30, 3 uM",105.9 and 126.8 and 102.6 and 103 and 93.1 and 96.9
same,resazurin conversion (Supplementary Figure 7D),"[3]; HepG2 AAGLY D30, 5 uM",129.6 and 134.9 and 121.5 and 111.6 and 104 and 111.7
same,resazurin conversion (Supplementary Figure 7D),"[3]; HepG2 AAGLY D30, 10 uM",105.3 and 123.3 and 96.5 and 99.1 and 96.1 and 97.4
same,resazurin conversion (Supplementary Figure 7D),"[3]; HepG2 AAGLY D30, 30 uM",36 and 76.7 and 84.8 and 78.3 and 78 and 67.3
same,resazurin conversion (Supplementary Figure 7D),"[3]; HepG2 AAGLY D30, 50 uM",9 and 9.3 and 8 (2×) and 8.1 and 7.7
same,resazurin conversion (Supplementary Figure 7D),"[3]; HepG2 AAGLY D30, 100 uM",9.2 and 9.7 and 8.4 (2×) and 7.9 and 8.1
same,resazurin conversion (Supplementary Figure 7D),"[3]; HepG2 AAGLY D30, 300 uM",11.5 and 11.8 and 10.1 (2×) and 10.3 and 9.9
same,resazurin conversion (Supplementary Figure 7D),"[3]; HepG2 AAGLY D30, 600 uM",11.8 and 11.6 and 10.3 and 10.8 and 10.2 and 10.1
same,resazurin conversion (Supplementary Figure 7D),"[3]; HepG2 CTL D7, 3 uM",81.4 and 72 and 103.7 and 72.2 and 87 and 94.4
same,resazurin conversion (Supplementary Figure 7D),"[3]; HepG2 CTL D7, 5 uM",84.8 and 64.7 and 80.3 and 68.3 and 74.8 and 74.1
same,resazurin conversion (Supplementary Figure 7D),"[3]; HepG2 CTL D7, 10 uM",81.6 and 63.4 and 87.3 and 63.9 and 78.5 and 72.9
same,resazurin conversion (Supplementary Figure 7D),"[3]; HepG2 CTL D7, 30 uM",60.5 and 51.3 and 64.3 and 51.4 and 61.6 and 55.4
same,resazurin conversion (Supplementary Figure 7D),"[3]; HepG2 CTL D7, 50 uM",35.6 and 31 and 32.6 and 33.9 and 34.6 and 33.7
same,resazurin conversion (Supplementary Figure 7D),"[3]; HepG2 CTL D7, 100 uM",30.9 and 30.6 and 31.4 and 30 and 30.5 and 29.7
same,resazurin conversion (Supplementary Figure 7D),"[3]; HepG2 CTL D7, 300 uM",36.6 and 35.8 and 37 and 36.1 and 37.2 and 36
same,resazurin conversion (Supplementary Figure 7D),"[3]; HepG2 CTL D7, 600 uM",37.5 (2×) and 36.2 and 38.4 and 36.6 and 34.9
same,% resazurin conversion,"[3]; HepG2 AAGLY D30, 1200 uM",11% and 9.3% and 9.9% and 9.1%
same,% resazurin conversion,"[3]; HepG2 CTL D7, 1200 uM",34.4% and 33.1% and 36.4% and 33% and 34.9% and 32.3%
same,resazurin conversion (Supplementary Figure 7D),"[4]; HLC AAGLY D40, 3 uM",81 and 139.4 and 131.8 and 81.1 and 194.1 and 102.8
same,resazurin conversion (Supplementary Figure 7D),"[4]; HLC AAGLY D40, 5 uM",158.2 and 102.6 and 130.1 and 239.6 and 167 and 46.2
same,resazurin conversion (Supplementary Figure 7D),"[4]; HLC AAGLY D40, 10 uM",117.1 and 195.1 and 92.8 and 87 and 6 and 258.8
same,resazurin conversion (Supplementary Figure 7D),"[4]; HLC AAGLY D40, 30 uM",52.4 and 182.9 and 124.1 and 55.1 and 48.3 and 27
same,resazurin conversion (Supplementary Figure 7D),"[4]; HLC AAGLY D40, 50 uM",46.9 and 25.2 and 26.1 and 23.4 and 30.1 and 22.3
same,resazurin conversion (Supplementary Figure 7D),"[4]; HLC AAGLY D40, 100 uM",22.1 and 23 and 22.5 and 22.9 and 24.2 and 22.8
same,resazurin conversion (Supplementary Figure 7D),"[4]; HLC AAGLY D40, 300 uM",25.4 and 26.9 (2×) and 25.9 and 25.8 and 27.1
same,resazurin conversion (Supplementary Figure 7D),"[4]; HLC AAGLY D40, 600 uM",27.4 and 30.3 and 28.5 and 29.2 and 27.1 and 28.7
same,resazurin conversion (Supplementary Figure 7D),"[4]; HLC LDM D40, 3 uM",101.3 and 106.4 and 83.1 and 128.8 and 110.4 and 128.2
same,resazurin conversion (Supplementary Figure 7D),"[4]; HLC LDM D40, 5 uM",103.9 and 126.1 and 116.3 and 112.6 and 76.1 and 103.3
same,resazurin conversion (Supplementary Figure 7D),"[4]; HLC LDM D40, 10 uM",114.4 and 115.2 and 124.5 and 104.3 and 103.8 and 111.5
same,resazurin conversion (Supplementary Figure 7D),"[4]; HLC LDM D40, 30 uM",92.8 and 75.4 and 51.3 and 90.2 and 120.8 and 118.9
same,resazurin conversion (Supplementary Figure 7D),"[4]; HLC LDM D40, 50 uM",12.7 and 17.8 and 12.3 and 20.8 and 25.8 and 69.6
same,resazurin conversion (Supplementary Figure 7D),"[4]; HLC LDM D40, 100 uM",11 and 11.6 and 11.2 and 11.3 and 10.7 and 11.5
same,resazurin conversion (Supplementary Figure 7D),"[4]; HLC LDM D40, 300 uM",13.5 and 13.3 and 13.6 and 12.4 and 12.2 (2×)
same,resazurin conversion (Supplementary Figure 7D),"[4]; HLC LDM D40, 600 uM",13.7 (2×) and 13.1 and 13.4 and 13.5 and 13.2
same,% resazurin conversion,"[4]; HLC AAGLY D40, 1200 uM",28.9% and 30.9% and 30.5% and 32.9% and 28% and 30.1%
same,% resazurin conversion,"[4]; HLC LDM D40, 1200 uM",14.7% and 15.3% and 13.9% and 14.1% and 13.7% and 12%
